Calls of active or inactive are those of the source. The rule behind the calls is not given here.
Test system: CCRIS mutagenicity, Ames/micronucleus/aberration tests
Experiment: CCRIS mutagenicity studies

Measured: mutagenic call

Cc1nnc2n1-c1ccc(Cl)cc1C(c1ccccc1Cl)=NC2
inactive: Test System: AMES SALMONELLA TYPHIMURIUM, Strain/Indicator: TA98, Metabolic Activation: NONE, Method: STANDARD PLATE inactive; negative | Test System: AMES SALMONELLA TYPHIMURIUM, Strain/Indicator: TA98, Metabolic Activation: RAT, LIVER, S-9, AROCLOR 1254, Method: STANDARD PLATE inactive; negative | Test System: AMES SALMONELLA TYPHIMURIUM, Strain/Indicator: TA100, Metabolic Activation: NONE, Method: STANDARD PLATE inactive; negative | Test System: AMES SALMONELLA TYPHIMURIUM, Strain/Indicator: TA100, Metabolic Activation: RAT, LIVER, S-9, AROCLOR 1254, Method: STANDARD PLATE inactive; negative | Test System: AMES SALMONELLA TYPHIMURIUM, Strain/Indicator: TA102, Metabolic Activation: NONE, Method: STANDARD PLATE inactive; negative | Test System: AMES SALMONELLA TYPHIMURIUM, Strain/Indicator: TA102, Metabolic Activation: RAT, LIVER, S-9, AROCLOR 1254, Method: STANDARD PLATE inactive; negative | Test System: AMES SALMONELLA TYPHIMURIUM, Strain/Indicator: TA1535, Metabolic Activation: NONE, Method: STANDARD PLATE inactive; negative | Test System: AMES SALMONELLA TYPHIMURIUM, Strain/Indicator: TA1535, Metabolic Activation: RAT, LIVER, S-9, AROCLOR 1254, Method: STANDARD PLATE inactive; negative | Test System: AMES SALMONELLA TYPHIMURIUM, Strain/Indicator: TA1537, Metabolic Activation: NONE, Method: STANDARD PLATE inactive; negative | Test System: AMES SALMONELLA TYPHIMURIUM, Strain/Indicator: TA1537, Metabolic Activation: RAT, LIVER, S-9, AROCLOR 1254, Method: STANDARD PLATE inactive; negative | Test System: E. COLI, Strain/Indicator: WP2 UVRA, Metabolic Activation: NONE, Method: STANDARD PLATE inactive; negative | Test System: E. COLI, Strain/Indicator: WP2 UVRA, Metabolic Activation: RAT, LIVER, S-9, AROCLOR 1254, Method: STANDARD PLATE inactive; negative

Nc1ccc(Cl)cc1Cl
inactive: Test System: AMES SALMONELLA TYPHIMURIUM, Strain/Indicator: TA97, Metabolic Activation: HAMSTER, LIVER, S-9, AROCLOR 1254 (10 OR 30%), Method: PREINCUBATION inactive; negative | Test System: AMES SALMONELLA TYPHIMURIUM, Strain/Indicator: TA97, Metabolic Activation: NONE, Method: PREINCUBATION inactive; negative | Test System: AMES SALMONELLA TYPHIMURIUM, Strain/Indicator: TA97, Metabolic Activation: RAT, LIVER, S-9, AROCLOR 1254 (10 OR 30%), Method: PREINCUBATION inactive; negative | Test System: AMES SALMONELLA TYPHIMURIUM, Strain/Indicator: TA98, Metabolic Activation: HAMSTER, LIVER, S-9, AROCLOR 1254 (10%), Method: PREINCUBATION inactive; negative | Test System: AMES SALMONELLA TYPHIMURIUM, Strain/Indicator: TA98, Metabolic Activation: HAMSTER, LIVER, S-9, AROCLOR 1254 (30%), Method: PREINCUBATION inactive; negative | Test System: AMES SALMONELLA TYPHIMURIUM, Strain/Indicator: TA98, Metabolic Activation: NONE, Method: PREINCUBATION inactive; negative | Test System: AMES SALMONELLA TYPHIMURIUM, Strain/Indicator: TA98, Metabolic Activation: RAT, LIVER, S-9, AROCLOR 1254 (5 OR 30%), Method: PREINCUBATION inactive; negative | Test System: AMES SALMONELLA TYPHIMURIUM, Strain/Indicator: TA98, Metabolic Activation: RAT, LIVER, S-9, AROCLOR 1254 (10%), Method: PREINCUBATION inactive; negative | Test System: AMES SALMONELLA TYPHIMURIUM, Strain/Indicator: TA100, Metabolic Activation: HAMSTER, LIVER, S-9, AROCLOR 1254 (5%), Method: PREINCUBATION inactive; negative | Test System: AMES SALMONELLA TYPHIMURIUM, Strain/Indicator: TA100, Metabolic Activation: HAMSTER, LIVER, S-9, AROCLOR 1254 (10%), Method: PREINCUBATION inactive; negative | Test System: AMES SALMONELLA TYPHIMURIUM, Strain/Indicator: TA100, Metabolic Activation: HAMSTER, LIVER, S-9, AROCLOR 1254 (30%), Method: PREINCUBATION inactive; negative | Test System: AMES SALMONELLA TYPHIMURIUM, Strain/Indicator: TA100, Metabolic Activation: NONE, Method: PREINCUBATION inactive; negative | Test System: AMES SALMONELLA TYPHIMURIUM, Strain/Indicator: TA100, Metabolic Activation: RAT, LIVER, S-9, AROCLOR 1254 (10%), Method: PREINCUBATION inactive; negative | Test System: AMES SALMONELLA TYPHIMURIUM, Strain/Indicator: TA100, Metabolic Activation: RAT, LIVER, S-9, AROCLOR 1254 (30%), Method: PREINCUBATION inactive; negative | Test System: AMES SALMONELLA TYPHIMURIUM, Strain/Indicator: TA1535, Metabolic Activation: HAMSTER, LIVER, S-9, AROCLOR 1254 (10 OR 30%), Method: PREINCUBATION inactive; negative | Test System: AMES SALMONELLA TYPHIMURIUM, Strain/Indicator: TA1535, Metabolic Activation: NONE, Method: PREINCUBATION inactive; negative | Test System: AMES SALMONELLA TYPHIMURIUM, Strain/Indicator: TA1535, Metabolic Activation: RAT, LIVER, S-9, AROCLOR 1254 (10 OR 30%), Method: PREINCUBATION inactive; negative | Test System: AMES SALMONELLA TYPHIMURIUM, Strain/Indicator: TA1537, Metabolic Activation: HAMSTER, LIVER, S-9, AROCLOR 1254 (30%), Method: PREINCUBATION inactive; negative | Test System: AMES SALMONELLA TYPHIMURIUM, Strain/Indicator: TA1537, Metabolic Activation: NONE, Method: PREINCUBATION inactive; negative | Test System: AMES SALMONELLA TYPHIMURIUM, Strain/Indicator: TA1537, Metabolic Activation: RAT, LIVER, S-9, AROCLOR 1254 (30%), Method: PREINCUBATION inactive; negative

— PubChem BioAssay AID1259407 (Chemical Carcinogenesis Research Information System (CCRIS), 2018)
